The values below are quoted from earlier work in patent US20030216337A1, “Composition and imaging methods for pharmacokinetic and pharmacodynamic evaluation of therapeutic delivery system” (priority 2002, published 2003).

SMILES strings stand for the structures.

On to `O=c1[nH]c(=O)n([C@H]2C[C@H](O)[C@@H](CO)O2)cc1I` [IUdR, 5-Iodo-2′-deoxyuridine], for which the half-life entry (in humans, unincorporated IUdR / resulting compound) is “less than minutes”. Further, where the note is “unincorporated into DNA”, the “catabolism of unincorporated IUdR” value is on record as “rapidly catabolized to iodouracil and/or dehalogenated”.
